The test system of assay [1] is cell line H1299 with high folate receptor α expression. Description: Confocal cell imaging of tracer uptake, cell line with high folate receptor α expression. Format: cell-based. Particulars: 100 nM tracer, incubated 1 h. Here is the method: (§1) 4. In order to verify the effect of the present disclosure, the following verification experiment was conducted: • (1) Use of a pemetrexed near-infrared fluorescent molecule in the aspect of differentiating a tumor with high folate receptor α expression from inflammation, that is, specific recognition of the pemetrexed near-infrared fluorescent molecule on a cell line with high folate receptor α expression: a cell line H1299 with high folate receptor α expression, a cell line A549 with low folate receptor α expression and a cell line RAW264.7 with high folate receptor β expression were selected. The cells were cultured in a Roswell Park Memorial Institute (RPPMI) culture medium containing 10% fetal bovine serum (FBS) and 1% […] in moist air containing 5% CO2 and 95% air at 37°C. The cells were incubated for 1 h in a confocal vessel by utilizing a 100 nM pemetrexed near-infrared fluorescent tracer. The cells after incubation were washed with PBS, stained with DPAI, fixed with paraformaldehyde and then photographed.

Assay [2] concerns cell line A549 with low folate receptor α expression. Description: Confocal cell imaging of tracer uptake, cell line with low folate receptor α expression. Format: cell-based. To be noted: folate receptor α negative A549 cell, 100 nM tracer, incubated 1 h. The method, then: as §1
For assay [3], the system named is A549 tumor-bearing mice with low folate receptor α expression. Description: In vivo near-infrared imaging of tumor-bearing mice, low folate receptor α expression. To be noted: tail vein injection, dose of 10 nm, after 2 h. Here is the method: (§2) (2) The pemetrexed near-infrared fluorescent molecule was used for specifically recognizing non-small lung cancer tissues with high folate receptor α expression: the pemetrexed near-infrared fluorescent tracer was administrated to H1299 and A549 tumor-bearing mice via tail vein injection at a dose of 10 nm. After 2 h, imaging effects were observed through an animal imaging instrument and tissue biological distribution of mice was analyzed.

Assay [4] relates to inflammatory tissue slice with high folate receptor β expression. As to the kind of experiment: Fluorescence of inflammatory tissue slices, H1299 tumor plus peritonitis mouse model. Format: in vivo. Particulars: H1299 tumor-bearing mouse with peritonitis, FIG. 7. The source says:
(§3) The establishment of the inflammation model was verified by utilizing immunohistochemistry slices. […] By utilizing different specificities to different folate receptor subtypes, the tumors are effectively differentiated from the inflammatory tissues.

Assay [5] concerns non-small cell lung cancer slice with high folate receptor α expression. As to the kind of experiment: Fluorescence of tumor slices, H1299 tumor plus peritonitis mouse model. Format: in vivo. Particulars: H1299 tumor-bearing mouse with peritonitis, FIG. 6.
Source text: as §3

In assay [6] the test system is cell line RAW264.7 with high folate receptor β expression. Description: Confocal cell imaging of tracer uptake, cell line with high folate receptor β expression. Format: cell-based. To be noted: RAW264.7, 100 nM tracer, incubated 1 h. Here is the method: as §1
Assay [7] has as its system H1299 tumor-bearing mice with high folate receptor α expression. Description: In vivo near-infrared imaging of tumor-bearing mice, high folate receptor α expression. To be noted: tail vein injection, dose of 10 nm, after 2 h. Here is the method:
as §2

This note sets out measurements from patent EP4592291A1, “USE OF PEMETREXED NEAR-INFRARED FLUORESCENT MOLECULE TARGETING ALPHA-TYPE FOLATE RECEPTOR AS FLUORESCENT TRACER” (Nanjing Nuoyuan Medical Devices Co., Ltd, priority 2022, dated 2024).

Structures are written as SMILES.

In the case of `CC1(C)C(=CC=C2CCCC(C=CC3=[N+](CCCCS(=O)(=O)[O-])c4ccc(S(=O)(=O)O)cc4C3(C)C)=C2Oc2ccc(C[C@H](NC(=O)c3ccc(CCc4c[nH]c5[nH]c(N)nc(=O)c45)cc3)C(=O)O)cc2)N(CCCCS(=O)(=O)O)c2ccc(S(=O)(=O)O)cc21`, the “tracer fluorescence in the cell (internalization)” value in assay [1] was “seen in the entire cytoplasm”. Moreover, the “tracer fluorescence in the cell (internalization)” value in assay [2] was “not observed”. Besides, the “targeting effect (imaging)” value in assay [3] is listed as “not detected”. For the same compound, in assay [4], the “fluorescence of tissue slice” value was “almost has no fluorescence”. For the same compound, in assay [5], the “fluorescence intensity of tissue slice” value is reported as “relatively high intensity”. Besides, the “fluorescence in the cell” value in assay [6] is “not detected”. Moreover, in assay [7], the “specific recognition of tumor (imaging effect)” value is reported as “capable of specifically recognizing” and the tumor background-to-signal ratio result is “good”.
